What all share (experiment): standard microtiter assay, minimum inhibitory concentration
Common to all, as to type: cell-based

For test [1], the system named is Staphylococcus epidermidis. Set-up: minimum inhibitory concentration of antibiotic, Test Organism 8: unit not given here. Particulars: for minimum inhibitory concentration of antibiotic, Test Organism 6: Test Organism 6, strain of Staphylococcus epidermidis; for minimum inhibitory concentration of antibiotic, Test Organism 8: Test Organism 8, strain of Staphylococcus epidermidis; for minimum inhibitory concentration of antibiotic, Test Organism 11: Test Organism 11, strain of Staphylococcus epidermidis; for minimum inhibitory concentration of antibiotic, Test Organism 13: Test Organism 13, strain of Staphylococcus epidermidis; for minimum inhibitory concentration of antibiotic, Test Organism 14: Test Organism 14, strain of Staphylococcus epidermidis. The text has this:
(§1) Representative results of standard microtiter assays are reported in Table 1 which follows, as the minimum inhibitory concentration of antibiotic (mg/ml). In Table 1, test organisms 1-5 were different strains of Staphylococcus aureus; 6, 8, 11, 13 and 14 were different strains of Staphylococcus epidermidis; 7 was a Staphylococcus haemolyticus; 9 and 10 were different strains of Streptococcus faecalis; and 12 was a Staphylococcus saprophyticus.

The test system of a further test is Streptococcus faecalis. Particulars: for minimum inhibitory concentration of antibiotic, Test Organism 9: Test Organism 9, strain of Streptococcus faecalis; for minimum inhibitory concentration of antibiotic, Test Organism 10: Test Organism 10, strain of Streptococcus faecalis.
Description: as §1

Test [2] has as its system Staphylococcus saprophyticus. Particulars: Test Organism 12, Staphylococcus saprophyticus.
Description: as §1

The test system of test [3] is Staphylococcus haemolyticus. Particulars: Test Organism 7, Staphylococcus haemolyticus.
Description: as §1

The next test has as its system Staphylococcus aureus. Particulars: for minimum inhibitory concentration of antibiotic, Test Organism 1: Test Organism 1, strain of Staphylococcus aureus; for minimum inhibitory concentration of antibiotic, Test Organism 2: Test Organism 2, strain of Staphylococcus aureus; for minimum inhibitory concentration of antibiotic, Test Organism 3: Test Organism 3, strain of Staphylococcus aureus; for minimum inhibitory concentration of antibiotic, Test Organism 4: Test Organism 4, strain of Staphylococcus aureus; for minimum inhibitory concentration of antibiotic, Test Organism 5: Test Organism 5, strain of Staphylococcus aureus.
Description: as §1

Regarding `CNC1C(=O)NC2C(=O)NC(C(=O)NC3C(=O)NC4C(=O)NC(C(=O)NC(C(=O)O)c5cc(O)cc(OC6OC(CO)C(O)C(O)C6O)c5-c5cc4ccc5O)C(O)c4cc(Cl)c(c(Cl)c4)Oc4cc3cc(c4O)Oc3ccc(cc3Cl)C2O)c2cc(cc(O)c2Cl)Oc2cc1ccc2O` (stereo not drawn) [Compound 2b, Ardacin mannosylaglycone, reference compound], in test [1], the “minimum inhibitory concentration of antibiotic, Test Organism 6” value is 12500 µg/mL; the “minimum inhibitory concentration of antibiotic, Test Organism 8” value stood at 6.3; the “minimum inhibitory concentration of antibiotic, Test Organism 11” value was found to be 25000 µg/mL; the “minimum inhibitory concentration of antibiotic, Test Organism 13” value was 6300 µg/mL. Also, in the test with Streptococcus faecalis, the “minimum inhibitory concentration of antibiotic, Test Organism 9” value worked out at 800 µg/mL and the “minimum inhibitory concentration of antibiotic, Test Organism 10” value was determined as 800 µg/mL. In test [2], the “minimum inhibitory concentration of antibiotic, Test Organism 12” value amounted to 3100 µg/mL. The “minimum inhibitory concentration of antibiotic, Test Organism 7” value in test [3] is 25000 µg/mL. Also, in the test with Staphylococcus aureus, the “minimum inhibitory concentration of antibiotic, Test Organism 1” value is 1600 µg/mL; the “minimum inhibitory concentration of antibiotic, Test Organism 2” value amounted to 1600 µg/mL; the “minimum inhibitory concentration of antibiotic, Test Organism 3” value worked out at 800 µg/mL; the “minimum inhibitory concentration of antibiotic, Test Organism 4” value was over 1600 µg/mL. Further, the “minimum inhibitory concentration of antibiotic, Test Organism 5” value in the test with Staphylococcus aureus stood at 1600 µg/mL.

Regarding `CN[C@H](CC(C)C)C(=O)N[C@H]1C(=O)N[C@@H](CC(N)=O)C(=O)N[C@H]2C(=O)N[C@H]3C(=O)N[C@H](C(=O)N[C@H](C(=O)O)c4cc(O)cc(O)c4-c4cc3ccc4O)[C@H](O)c3ccc(c(Cl)c3)Oc3cc2cc(c3O[C@@H]2O[C@H](CO)[C@@H](O)[C@H](O)[C@H]2O[C@H]2C[C@](C)(N)[C@H](O)[C@H](C)O2)Oc2ccc(cc2Cl)[C@H]1O` [Vancomycin, reference compound], in test [1], the “minimum inhibitory concentration of antibiotic, Test Organism 6” value is 3100 µg/mL; the “minimum inhibitory concentration of antibiotic, Test Organism 11” value came to 3100 µg/mL; the “minimum inhibitory concentration of antibiotic, Test Organism 13” value amounted to 3100 µg/mL; the “minimum inhibitory concentration of antibiotic, Test Organism 14” value was 3100 µg/mL. For the same molecule, in the test on Streptococcus faecalis, the “minimum inhibitory concentration of antibiotic, Test Organism 9” value is 3100 µg/mL and the “minimum inhibitory concentration of antibiotic, Test Organism 10” value is 3100 µg/mL. In addition, the “minimum inhibitory concentration of antibiotic, Test Organism 12” value in test [2] was 3100 µg/mL. In addition, in test [3], the “minimum inhibitory concentration of antibiotic, Test Organism 7” value was found to be 3100 µg/mL. In addition, in the test with Staphylococcus aureus, the “minimum inhibitory concentration of antibiotic, Test Organism 1” value is 3100 µg/mL; the “minimum inhibitory concentration of antibiotic, Test Organism 2” value came out at 1600 µg/mL; the “minimum inhibitory concentration of antibiotic, Test Organism 3” value stood at 1600 µg/mL; the “minimum inhibitory concentration of antibiotic, Test Organism 4” value was over 3100 µg/mL. In the test with Staphylococcus aureus, the “minimum inhibitory concentration of antibiotic, Test Organism 5” value worked out at 1600 µg/mL.

As for `CNC1C(=O)NC2C(=O)NC(C(=O)NC3C(=O)NC4C(=O)NC(C(=O)NC(C(=O)NCCN)c5cc(O)cc(O)c5-c5cc4ccc5O)C(O)c4cc(Cl)c(c(Cl)c4)Oc4cc3cc(c4O)Oc3ccc(cc3Cl)C2O)c2cc(cc(O)c2Cl)Oc2cc1ccc2O` (stereo not drawn) [Compound 2e, Ardacin aglycone-(2-aminoethyl amide)], in test [1], the “minimum inhibitory concentration of antibiotic, Test Organism 6” value was 100 µg/mL; the “minimum inhibitory concentration of antibiotic, Test Organism 8” value came out at 0.1; the “minimum inhibitory concentration of antibiotic, Test Organism 11” value was found to be 100 µg/mL; the “minimum inhibitory concentration of antibiotic, Test Organism 13” value came out at 50 µg/mL. Moreover, the “minimum inhibitory concentration of antibiotic, Test Organism 14” value in test [1] is 50 µg/mL. Moreover, in the test on Streptococcus faecalis, the “minimum inhibitory concentration of antibiotic, Test Organism 9” value stood at 50 µg/mL and the “minimum inhibitory concentration of antibiotic, Test Organism 10” value is 100 µg/mL. The “minimum inhibitory concentration of antibiotic, Test Organism 12” value in test [2] worked out at 50 µg/mL. In addition, the “minimum inhibitory concentration of antibiotic, Test Organism 7” value in test [3] came out at 50 µg/mL. Besides, in the test on Staphylococcus aureus, the “minimum inhibitory concentration of antibiotic, Test Organism 1” value was 50 µg/mL; the “minimum inhibitory concentration of antibiotic, Test Organism 2” value was found to be 50 µg/mL; the “minimum inhibitory concentration of antibiotic, Test Organism 3” value was determined as 50 µg/mL; the “minimum inhibitory concentration of antibiotic, Test Organism 4” value was found to be 200 µg/mL. Further, the “minimum inhibitory concentration of antibiotic, Test Organism 5” value in the test on Staphylococcus aureus was found to be 50 µg/mL.

As to “Ardacin A [Compound 2i, reference compound]”, in test [1], the “minimum inhibitory concentration of antibiotic, Test Organism 6” value was 50000 µg/mL; the “minimum inhibitory concentration of antibiotic, Test Organism 8” value came out at 25; the “minimum inhibitory concentration of antibiotic, Test Organism 11” value is 25000 µg/mL; the “minimum inhibitory concentration of antibiotic, Test Organism 13” value was determined as 6300 µg/mL. Also, the “minimum inhibitory concentration of antibiotic, Test Organism 14” value in test [1] came out at 5100 µg/mL. In addition, in the test with Streptococcus faecalis, the “minimum inhibitory concentration of antibiotic, Test Organism 9” value was determined as 800 µg/mL and the “minimum inhibitory concentration of antibiotic, Test Organism 10” value was 800 µg/mL. In addition, the “minimum inhibitory concentration of antibiotic, Test Organism 12” value in test [2] was 12500 µg/mL. In addition, the “minimum inhibitory concentration of antibiotic, Test Organism 7” value in test [3] came to 25000 µg/mL. For the same molecule, in the test on Staphylococcus aureus, the “minimum inhibitory concentration of antibiotic, Test Organism 1” value is 6300 µg/mL; the “minimum inhibitory concentration of antibiotic, Test Organism 2” value stood at 3100 µg/mL; the “minimum inhibitory concentration of antibiotic, Test Organism 3” value worked out at 800 µg/mL; the “minimum inhibitory concentration of antibiotic, Test Organism 4” value is over 6300 µg/mL. Moreover, in the test on Staphylococcus aureus, the “minimum inhibitory concentration of antibiotic, Test Organism 5” value stood at 3100 µg/mL.

On to `CNC1C(=O)NC2C(=O)NC(C(=O)NC3C(=O)NC4C(=O)NC(C(=O)NC(C(=O)O)c5cc(O)cc(O)c5-c5cc4ccc5O)C(O)c4cc(Cl)c(c(Cl)c4)Oc4cc3cc(c4O)Oc3ccc(cc3Cl)C2O)c2cc(cc(O)c2Cl)Oc2cc1ccc2O` (stereo not drawn) [Compound 2a, Ardacin aglycone, reference compound], for which, in test [1], the “minimum inhibitory concentration of antibiotic, Test Organism 6” value is 800 µg/mL; the “minimum inhibitory concentration of antibiotic, Test Organism 8” value is 3.1; the “minimum inhibitory concentration of antibiotic, Test Organism 11” value worked out at 1600 µg/mL; the “minimum inhibitory concentration of antibiotic, Test Organism 13” value is 1800 µg/mL. The “minimum inhibitory concentration of antibiotic, Test Organism 14” value in test [1] was 800 µg/mL. Moreover, in the test on Streptococcus faecalis, the “minimum inhibitory concentration of antibiotic, Test Organism 9” value came out at 800 µg/mL and the “minimum inhibitory concentration of antibiotic, Test Organism 10” value amounted to 800 µg/mL. Moreover, the “minimum inhibitory concentration of antibiotic, Test Organism 12” value in test [2] is 1600 µg/mL. Moreover, the “minimum inhibitory concentration of antibiotic, Test Organism 7” value in test [3] came out at 6300 µg/mL. Further, in the test on Staphylococcus aureus, the “minimum inhibitory concentration of antibiotic, Test Organism 1” value amounted to 800 µg/mL; the “minimum inhibitory concentration of antibiotic, Test Organism 2” value amounted to 800 µg/mL; the “minimum inhibitory concentration of antibiotic, Test Organism 3” value stood at 400 µg/mL; the “minimum inhibitory concentration of antibiotic, Test Organism 4” value was 400 µg/mL. Moreover, the “minimum inhibitory concentration of antibiotic, Test Organism 5” value in the test on Staphylococcus aureus stood at 800 µg/mL.

For `CNC1C(=O)NC2C(=O)NC(C(=O)NC3C(=O)NC4C(=O)NC(C(=O)NC(C(=O)O)c5cc(O)cc(OC6OC(CO)C(O)C(O)C6O)c5-c5cc4ccc5O)C(O)c4ccc(c(Cl)c4)Oc4cc3cc(c4OC3OC(C(=O)O)C(O)C(O)C3NC(=O)CCCCCCCCC(C)C)Oc3ccc(cc3)C2O)c2cc(cc(O)c2Cl)Oc2cc1ccc2O` (stereo not drawn) [Compound 2p, AAJ-271 C1, reference compound], in test [1], the “minimum inhibitory concentration of antibiotic, Test Organism 6” value came to 6300 µg/mL; the “minimum inhibitory concentration of antibiotic, Test Organism 8” value was found to be 25; the “minimum inhibitory concentration of antibiotic, Test Organism 11” value came to 25000 µg/mL; the “minimum inhibitory concentration of antibiotic, Test Organism 13” value came to 6300 µg/mL. In addition, in test [1], the “minimum inhibitory concentration of antibiotic, Test Organism 14” value came to 6300 µg/mL. Moreover, in the test on Streptococcus faecalis, the “minimum inhibitory concentration of antibiotic, Test Organism 9” value is 6300 µg/mL and the “minimum inhibitory concentration of antibiotic, Test Organism 10” value amounted to 6300 µg/mL. In test [2], the “minimum inhibitory concentration of antibiotic, Test Organism 12” value turned out to be 1600 µg/mL. In test [3], the “minimum inhibitory concentration of antibiotic, Test Organism 7” value amounted to 6300 µg/mL. Further, in the test on Staphylococcus aureus, the “minimum inhibitory concentration of antibiotic, Test Organism 1” value came to 400 µg/mL; the “minimum inhibitory concentration of antibiotic, Test Organism 2” value amounted to 400 µg/mL; the “minimum inhibitory concentration of antibiotic, Test Organism 3” value is 200 µg/mL; the “minimum inhibitory concentration of antibiotic, Test Organism 4” value was determined as 800 µg/mL. The “minimum inhibitory concentration of antibiotic, Test Organism 5” value with Staphylococcus aureus amounted to 400 µg/mL.

“AAJ-271 C2 [Compound 2r, reference compound]”: in test [1], the “minimum inhibitory concentration of antibiotic, Test Organism 6” value is 25000 µg/mL; the “minimum inhibitory concentration of antibiotic, Test Organism 8” value was 12.5; the “minimum inhibitory concentration of antibiotic, Test Organism 11” value stood at 25000 µg/mL; the “minimum inhibitory concentration of antibiotic, Test Organism 13” value came out at 6300 µg/mL. Also, the “minimum inhibitory concentration of antibiotic, Test Organism 14” value in test [1] came out at 3100 µg/mL. Further, in the test on Streptococcus faecalis, the “minimum inhibitory concentration of antibiotic, Test Organism 9” value was 200 µg/mL and the “minimum inhibitory concentration of antibiotic, Test Organism 10” value is 200 µg/mL. Further, the “minimum inhibitory concentration of antibiotic, Test Organism 12” value in test [2] stood at 1600 µg/mL. Also, the “minimum inhibitory concentration of antibiotic, Test Organism 7” value in test [3] came to 12500 µg/mL. Besides, in the test with Staphylococcus aureus, the “minimum inhibitory concentration of antibiotic, Test Organism 1” value came out at 800 µg/mL; the “minimum inhibitory concentration of antibiotic, Test Organism 2” value is 800 µg/mL; the “minimum inhibitory concentration of antibiotic, Test Organism 3” value worked out at 200 µg/mL; the “minimum inhibitory concentration of antibiotic, Test Organism 4” value stood at 1600 µg/mL. The “minimum inhibitory concentration of antibiotic, Test Organism 5” value with Staphylococcus aureus was found to be 800 µg/mL.

The values above are taken from patent US4882313A, “Carboxamide derivatives of glycopeptides” (SmithKline Beckman Corporation, priority 1987, dated 1989).
